Tests used:
Plasmodium falciparum [1] = assay: NOVARTIS: Inhibition of Plasmodium falciparum 3D7 (drug-susceptible) proliferation in erythrocyte-based infection assay; assay type: functional, organism-based; details: Plasmodium falciparum, 3D7
[2] = NOVARTIS: Cytotoxicity against human hepatocellular carcinoma cell line (Huh7); assay type: toxicity, cell-based, Huh-7; details: Huh7 cells (hepatocellular carcinoma cell line)
Plasmodium falciparum [3] = assay: NOVARTIS: Inhibition of Plasmodium falciparum W2 (drug-resistant) proliferation in erythrocyte-based infection assay; assay type: functional, organism-based; details: Plasmodium falciparum, W2; read-out: EC50

Row | SMILES | EC50 (Plasmodium falciparum [1]) | CC50 [2] | EC50 (Plasmodium falciparum [3])
1 | C/C(=C\c1csc(C)n1)[C@@H]1C[C@@H]2O[C@@H]2CCC[C@H](C)C(O)[C@@H](C)C(=O)C(C)(C)[C@@H](O)CC(=O)O1 (some centres undefined) | 1030 nM | > 10000 nM | 156 nM
2 | Cc1cccc(C)c1NC(=O)N1CCN(C(=O)c2nc(-c3ccccc3)nc(C)c2C(=O)OC(C)C)CC1C (centres undefined) | 792 nM | > 10000 nM | 642 nM
3 | Cc1ccc(CN=C(N)Nc2nc(C)cc(C)n2)cc1 | 653 nM | 11200 nM | 609 nM
4 | c1ccc(Oc2cccc(CN3CCc4nc(N5CCCCC5)sc4C3)c2)cc1 | 294 nM | > 10000 nM | 173 nM
5 | COc1cccc(NC(=O)C2C3C=CC4(O3)C2C(=O)N(Cc2ccc3c(c2)OCO3)C4C(=O)NC2CCCCC2C)c1 (centres undefined) | > 12500 nM | > 100000 nM | > 5310 nM
6 | CCCCN1C(=O)N(c2ccccc2C)C(C)(O)CC1(C)C (centres undefined) | > 1520 nM | > 10000 nM | > 261 nM
7 | CCOC(=O)c1c(S(=O)(=O)N2CCCC(C(=O)N3CCN(c4cccc(C)c4C)CC3)C2)c(C)n(C)c1C (centres undefined) | 923 nM | > 100000 nM | 2120 nM
8 | CCOc1ccccc1-n1c(C(C)N(Cc2ccccc2)C(=O)Nc2ccccc2OC)nc2ccccc2c1=O (centres undefined) | 484 nM | > 6650 nM | 397 nM
9 | CCOC(=O)c1cnc2c(ccc3ccccc32)c1Nc1ccc(NC(C)=O)cc1 | 6900 nM | > 100000 nM | 1610 nM
10 | CC(=O)NC(c1ccc(N(C)C)cc1)c1cc(Cl)c2cccnc2c1O (centres undefined) | 651 nM | > 100000 nM | 39.3 nM
11 | CC(C)(C)NCC(O)Cn1c2ccc(I)cc2c2cc(I)ccc21 (centres undefined) | 608 nM | 6090 nM | 64 nM
12 | COc1ccc2[nH]c3ccccc3c(=O)c2c1 | 4320 nM | > 100000 nM | 3140 nM
13 | CCC(=O)N1CCOc2c(cc(-c3csc4ccccc34)cc2OCCc2ccccn2)C1 | > 1620 nM | > 10000 nM | 1350 nM
14 | CCCN(CC1CC1)C(=O)C1CCCN(c2cccc3c2C(=O)N(Cc2cc(OC)c(OC)c(OC)c2)C3=O)C1 (centres undefined) | > 1250 nM | > 10000 nM | 1120 nM
15 | Oc1ccc(-c2nc3ccccc3s2)cc1CN1CCCCC1 | 1140 nM | > 6130 nM | 786 nM
16 | Cc1c(C)c2c(c(C)c1O)CC[C@](C)(CN1CCN(c3cc(N4CCCC4)nc(N4CCCC4)n3)CC1)O2 | 175 nM | 42000 nM | 384 nM
17 | O=C(NCC1CCCO1)c1cc(S(=O)(=O)N2CCCCC2)c[nH]1 (centres undefined) | > 1250 nM | > 10000 nM | > 860 nM
18 | CN(C)c1cc[n+](CC(=O)c2cccs2)cc1 | 649 nM | > 100000 nM | 688 nM
19 | COc1ccc(C2=C(Nc3ccc4oc5ccccc5c4c3)c3ccccc3C2=O)cc1 | 142 nM | > 100000 nM | 100 nM
20 | COc1cc2nc(Nc3ccc(F)cc3)nc(N)c2cc1OC | 117 nM | 18400 nM | 139 nM
21 | Cc1ccc(NC(=O)C(C)Sc2nnc(-c3ccc(O)cc3)o2)cc1 (centres undefined) | > 1250 nM | > 10000 nM | 601 nM
22 | COCCCNC(=O)c1c(C)nc2scc(C)n12 | > 1080 nM | > 10000 nM | > 1450 nM
23 | O=C1C(O)=CC(=Nc2ccc(Cc3ccncc3)cc2)c2ccccc21 | 496 nM | > 10000 nM | 739 nM

Row | SMILES | EC50 (Plasmodium falciparum [1]) | CC50 [2] | EC50 (Plasmodium falciparum [3])
24 | Cc1cc(-c2cncnc2C2CCN(C(=O)c3cc(C(C)C)n[nH]3)CC2)on1 | > 1250 nM | > 10000 nM | > 849 nM
25 | CC(C)C1=Nc2cc(C(N)=O)ccc2CN1C1CC1 | 30.8 nM | > 10000 nM | > 338 nM
26 | Cc1ccnc(NS(=O)(=O)c2ccc(NC(=O)C(C)C)cc2)n1 | > 6150 nM | > 100000 nM | 1690 nM
27 | COc1ccc(CCN2CC(CNC(=O)Cc3cccnc3)C(c3ccc(N(C)C)cc3)C2)cc1OC (centres undefined) | 997 nM | > 10000 nM | > 306 nM
28 | O=C(Nc1ccccc1)C1Cc2ccccc2CN1S(=O)(=O)c1ccc(F)cc1 (centres undefined) | > 12500 nM | > 100000 nM | 6310 nM
29 | Cc1ccn2c(NC(C)(C)CC(C)(C)C)c(-c3ccccc3OC(=O)CCCCl)nc2c1 | 753 nM | > 10000 nM | 20.2 nM
30 | COc1ccc(OC)c(-c2ccc(O)c(CNCC3CCCCC3)c2)c1 | 350 nM | > 10000 nM | 120 nM
31 | CCOC(=O)c1c(CNCCN(CC)CC)n(C)c2cc(Br)c(OC(C)=O)cc12 | 833 nM | > 100000 nM | 309 nM
32 | Cc1ccc(C)n1-c1ccc(C(=O)N2CCC(C)CC2)cc1 | 5120 nM | > 100000 nM | 2040 nM
33 | C=C[C@H]1CN2CC[C@H]1C[C@@H]2[C@@H](O)c1ccnc2ccccc12 [CINCHONINE] | 95.3 nM | > 6250 nM | 110 nM
34 | CCCN(CCC)C(=O)c1c[nH]c2ccc(S(=O)(=O)N(C)c3ccc(F)cc3)cc2c1=O | > 12500 nM | > 100000 nM | 6650 nM
35 | O=C(COc1ccc(Cl)cc1)Nc1nnc(-c2ccc3c(c2)OCO3)s1 | > 1250 nM | > 13800 nM | 26.7 nM
36 | COc1ccc(CN2C[C@H](Sc3nc4ccccc4[nH]3)C[C@H]2C(=O)NC2CC2)cc1C | 545 nM | 16500 nM | 830 nM
37 | CCN1CCN(c2cc(C)c3cc(NC(=O)c4cc(=O)c5ccccc5o4)ccc3n2)CC1 | 498 nM | > 10000 nM | 386 nM
38 | CCN(CC)CCCN(Cc1cc2cc(OC)ccc2[nH]c1=O)C(=S)Nc1ccc(C)cc1 | 3410 nM | 33000 nM | 2020 nM
39 | COc1cccc(NC(=O)c2sc3ncn(CC(=O)N4CCN(c5ccccn5)CC4)c(=O)c3c2C)c1 | > 12500 nM | > 100000 nM | 1240 nM
40 | CC1=CC(=C(C#N)c2nc3ccccc3s2)C=C(C)N1CC1CCCO1 (centres undefined) | 411 nM | > 100000 nM | 670 nM
41 | c1ccc2c(c1)OC13CCCCC1C2NCC3 (centres undefined) | 270 nM | 48600 nM | 43.6 nM
42 | CCc1ccc(O)c(-c2cc(C(=O)Nc3cccnc3)[nH]n2)c1 | 742 nM | > 100000 nM | 910 nM
43 | O=C1C2C(C(=O)N1c1ccc(Br)cc1)C1C=CC2C12CC2 (centres undefined) | > 12500 nM | > 100000 nM | 3980 nM
44 | COc1ccc(OCC(O)CNC2CCN(CC(O)COc3ccc(Cl)c(Cl)c3)CC2)cc1 (centres undefined) | 328 nM | 9140 nM | 524 nM
45 | Cc1ncc(CN2CCC(C(=O)Nc3ccc(-n4cccn4)cc3)CC2)s1 | 3190 nM | > 100000 nM | 2830 nM
46 | Cc1cccc(-c2nc3cc(NC(=S)NC(=O)c4ccc(Cl)cc4)ccc3o2)c1 | > 1660 nM | > 10000 nM | 183 nM

Row | SMILES | EC50 (Plasmodium falciparum [1]) | CC50 [2] | EC50 (Plasmodium falciparum [3])
47 | CC12CCC(C(=O)N(CC(O)Cn3c4ccc(Cl)cc4c4cc(Cl)ccc43)C1=O)C2(C)C (centres undefined) | 118 nM | > 100000 nM | 120 nM
48 | CCOc1ccc(S(=O)(=O)N=C2C=C(Nc3ccc(O)cc3)C(=O)c3ccccc32)cc1 | 158 nM | 7050 nM | 135 nM
49 | C=CCNC(=O)c1ccc2c(c1)N=C(/C=C/c1ccccc1)N(CCc1cccc(OC)c1)C2 | 1340 nM | > 10000 nM | 1040 nM
50 | N=c1c2c(n(Cc3ccc(F)cc3)c3c1CCC3)CCC2 | 266 nM | > 100000 nM | 202 nM
51 | CCC(O)CN(c1ccccc1)c1ccccc1 (centres undefined) | > 1250 nM | > 10000 nM | > 1020 nM
52 | Cc1cccc(-n2nc(C(C)(C)C)cc2NC(=O)CN(C(=O)/C=C/c2ccccc2)C(C)C)c1C | > 1750 nM | > 10000 nM | 85.5 nM
53 | Nc1cc(-c2cccs2)n[nH]1 | > 11200 nM | > 100000 nM | > 5810 nM
54 | CCC(c1nc2ccccc2c(=O)n1-c1cccc(Cl)c1)N(CCc1ccccc1)C(=O)c1ccc(F)cc1 (centres undefined) | 267 nM | 656 nM | 69 nM
55 | O=C(NC1CC1)c1ccc(OC2CCN(CC3CCCCC3)CC2)c(Cl)c1 | 119 nM | 22600 nM | 50.3 nM
56 | COc1ccc(C2CC(=O)C3=C(C2)NC(C)=C(C(=O)OC2CCCCC2)C3c2cccc(C)c2)cc1OC (centres undefined) | 837 nM | > 100000 nM | 281 nM
57 | C[n+]1ccccc1/C=C/c1ccc(Br)cc1 | 360 nM | > 10000 nM | 324 nM
58 | CCCN1CCN(C(=O)C(=O)Nc2ccc3nc4n(c(=O)c3c2)CCCCC4)CC1 | 1680 nM | > 100000 nM | 165 nM
59 | Oc1cccc(C=Nc2ccccc2)c1O | 360 nM | > 10300 nM | 435 nM
60 | O=C1Nc2ccccc2Sc2ccccc21 | > 3030 nM | > 100000 nM | > 12500 nM
61 | COCCN(C)C(=O)COC(c1cccs1)c1cccnc1Cl (centres undefined) | 407 nM | > 10000 nM | 299 nM
62 | COc1cc(NC(C)CCCN(Cc2ccc(Cl)cc2)C(=O)c2ccc(Cl)cc2Cl)c2ncccc2c1 (centres undefined) | 376 nM | 4870 nM | 473 nM
63 | N#CC(c1ccc(C(F)(F)F)cc1)c1ccc2c(C(F)(F)F)cc(C(F)(F)F)nc2n1 (centres undefined) | 413 nM | 2510 nM | 316 nM
64 | C(=Nc1cnc2ccccc2c1)c1c2n(c3ccccc13)CCCN2 | 663 nM | > 100000 nM | 1510 nM
65 | Fc1ccc(CCNc2ncnc3c2[nH]c2ccccc23)cc1 | 257 nM | 12000 nM | 133 nM
66 | O=C(NCc1n[nH]c(=S)n1-c1ccc(Br)cc1)c1cccc2ccccc12 | 293 nM | > 100000 nM | 301 nM
67 | COc1cc(C(=O)NC2CC2)ccc1OC1CCN(CC(c2ccccc2)c2ccccc2)CC1 | 44.4 nM | 23500 nM | 18.5 nM
68 | CCC(CC)CN1CCC(O)(c2ccc3oc(C(=O)Nc4ccc5c(c4)OCO5)cc3c2)CC1 | 246 nM | > 100000 nM | 268 nM

— ChEMBL document CHEMBL1156829 (Proc Natl Acad Sci U S A, 2008)
